PMC7288428, “Amaryllidaceae alkaloids with anti-Trypanosoma cruzi activity” (Parasites & Vectors, 2020)
≈ marks a conversion by molar mass, not a printed value. Where “and” joins values, the source holds several entries; their conditions need not be identical. Equal entries are not always repeated. Structures can show the parent of a compound that is named as a salt. Where two headings read alike, the source gives them in different places.

Tests used:
[1] = system: protozoa; parameters: method as in ref 28, 29 = [28]; PMID 15541744; doi:10.1016/j.phytochem.2004.10.004; 28. Machocho AK Bastida J Codina C Viladomat F Brun R Chabra SC Augustamine type alkaloids from Crinum kirkii Phytochemistry. 2004 65 3143 3149 15541744 10.1016/j.phytochem.2004.10.004 || [29]; 29. Osorio EJ Berkov S Brun R Codina C Viladomat F Cabezas F In vitro antiprotozoal activity of alkaloids from Phaedranassa dubia (Amaryllidaceae) Phytochem Lett. 2010 3 161 163; conditions: cited from earlier work
[2] = system: trypomastigotes from the T. cruzi strain Tulahuen C4; parameters: method as in ref 28 = [28]; PMID 15541744; doi:10.1016/j.phytochem.2004.10.004; 28. Machocho AK Bastida J Codina C Viladomat F Brun R Chabra SC Augustamine type alkaloids from Crinum kirkii Phytochemistry. 2004 65 3143 3149 15541744 10.1016/j.phytochem.2004.10.004; conditions: cited from earlier work
[3] = system: Vero cells; assay: Vero cell toxicity assay (Alamar Blue); conditions: 4 days, mean (SD in text)
[4] = system: HepG2 cells; assay: HepG2 cell toxicity assay (Alamar Blue); conditions: 2 days, mean (SD in text)
[5] = system: T. cruzi intracellular amastigote forms; assay: Anti-amastigote specific activity assay (Vero host cells); assay type: cell-based; conditions: Trypanosoma cruzi, 96 h, read-out: anti-amastigote activity (IC50)
[6] = system: T. cruzi; parameters: method as in earlier work; conditions: cited from earlier work
[7] = system: HepG2 cells; parameters: method as in PMID 7701000; conditions: cited from earlier work
[8] = system: avian influenza virus H5N1; conditions: read-out: IC50 against avian influenza virus H5N1; cited from earlier work
[9] = system: T. cruzi; parameters: method as in PMID 9810280, PMID 11301878, PMID 22673940; conditions: L6 cells as host; cited from earlier work
[10] = system: ZIKA virus; parameters: method as in PMID 28736217; conditions: human forebrain organoids; cited from earlier work
[11] = system: ZIKA virus; parameters: method as in PMID 28736217; conditions: cited from earlier work
[12] = system: ZIKA virus; parameters: method as in PMID 28736217; conditions: cited from earlier work; remark: listed apart in the source

CC(=O)O[C@@H]1CC=C2CCN3Cc4cc5c(cc4[C@H]1[C@@H]23)OCO5 [1-O-acetylcaranine]
antiprotozoal activity described before [1]: poor antiprotozoal agents

CC(=O)O[C@H]1C=C[C@@]23CCN(C)Cc4ccc(O)c(c42)O[C@H]3C1 [3-O-acetylsanguinine]
IC50 against trypomastigotes [2]: 2.3 µg/mL (≈ 7.29 µM)
IC50 ([2]; converted from μg/ml, read-out: IC50 against trypomastigotes): 7.29 µM

O=C(Cn1ccnc1[N+](=O)[O-])NCc1ccccc1 [BNZ, benznidazole, reference compound]
TC50, Vero cell toxicity assay [3]: 173.4 (43.57) µM and 173.4 µM
TC50, HepG2 cell toxicity assay [4]: 168.76 µM
IC50 ([5]; intracellular amastigotes in Vero cells, mean (SD)): 1.2 µM

COC1C=CC23c4cc5c(cc4CN(CC2O)C3C1)OCO5 (centres unmarked) [Haemanthamine, haemanthamine]
TC50, Vero cell toxicity assay [3]: 11.52 µM
IC50 against T. cruzi [6]: 1.8 µg/mL (≈ 5.97 µM)
IC50 ([6]; converted from µg/ml, read-out: IC50 against T. cruzi): 5.97 µM
TC50 for HepG2 cells [7]: 13 µg/mL
TC50 for HepG2 cells ([7]; converted from µg/ml): 43.14 µM
TC50, HepG2 cell toxicity assay [4]: 42.48 (6.96) µM and 42.48 µM

CN1CCC2=C[C@H](O)[C@H]3OC(=O)c4cc5c(cc4[C@H]3[C@@H]21)OCO5 [Hippeastrine, hippeastrine]
TC50, Vero cell toxicity assay [3]: 45.99 µM
TC50, Vero cell toxicity assay ([3]; listed as hippeastrine): 45.99 (6.32) µM
IC50 [8]: 47.5 µM
TC50 for HepG2 cells [7]: 40 µg/mL
TC50 for HepG2 cells ([7]; converted from µg/ml): 126.85 µM
TC50, HepG2 cell toxicity assay [4]: 128.10 µM
TC50, HepG2 cell toxicity assay ([4]; listed as hippeastrine): 128.1 (12.26) µM
IC50 ([5]; Vero): 3.31 µM

O[C@H]1[C@H]2c3cc4c(cc3CN3CCC(=C[C@@H]1O)[C@H]23)OCO4 [Lycorine, lycorine]
TC50, Vero cell toxicity assay [3]: 5.21 µM
TC50, Vero cell toxicity assay ([3]; listed as lycorine): 5.21 (0.80) µM
activity against T. cruzi in previous studies [9]: inactive
TC50, HepG2 cell toxicity assay [4]: 21.87 µM
TC50, HepG2 cell toxicity assay ([4]; listed as lycorine): 21.87 (4.16) µM

CO[C@H]1C=C2[C@H]3C[N@@](Cc4cc5c(cc43)OCO5)[C@H]2C[C@@H]1O [Montanine, montanine]
TC50, Vero cell toxicity assay [3]: 5.04 µM
TC50, HepG2 cell toxicity assay [4]: 46.10 µM
TC50, HepG2 cell toxicity assay ([4]; listed as montanine): 46.1 (11.99) µM

O=C1N[C@@H]2C(=C[C@H](O)[C@@H](O)[C@H]2O)c2cc3c(c(O)c21)OCO3 [Narciclasine, narciclasine]
TC50, Vero cell toxicity assay [3]: 0.66 µM
TC50, Vero cell toxicity assay ([3]; listed as narciclasine): 0.66 (0.082) µM
TC50, HepG2 cell toxicity assay [4]: 2.73 µM
TC50, HepG2 cell toxicity assay ([4]; listed as narciclasine): 2.73 (0.67) µM

CN1CC[C@@]23C=C[C@H](O)C[C@@H]2Oc2c(O)ccc(c23)C1 [Sanguinine, sanguinine]
antiprotozoal activity described before [1]: poor antiprotozoal agents

CO[C@@H]1C=C[C@@]23c4cc5c(cc4CO[C@]2(O)CN(C)[C@H]3C1)OCO5 [Tazettine, tazettine]
antiprotozoal activity described before [1]: poor antiprotozoal agents

C[C@H]1O[C@@H](O[C@H]2[C@@H](O)C[C@H](O[C@H]3[C@@H](O)C[C@H](O[C@H]4CC[C@@]5(C)[C@H](CC[C@@H]6[C@@H]5CC[C@]5(C)[C@@H](C7=CC(=O)OC7)CC[C@]65O)C4)O[C@@H]3C)O[C@@H]2C)C[C@H](O)[C@@H]1O [digitoxin, reference compound]
TC50, HepG2 cell toxicity assay [4]: 0.29 (0.14) µM

CN1CCC2=C[C@H](O)[C@H]3OC(=O)c4cc5c(cc4[C@H]3[C@@H]21)OCO5 [hippeastrine hydrobromide]
effect on ZIKV-induced microcephaly phenotype [10]: recover a ZIKV-induced microcephaly phenotype in human forebrain organoids
effect on virus propagation in infected adult mice [11]: suppress virus propagation in infected adult mice
effect on ZIKA virus in infected human neural progenitors [12]: remove ZIKA virus from infected human neural progenitors
